One experiment concerns the target T1, hA2A receptors (Homo sapiens, UniProt P29274).
T1 construct: purchased PerkinElmer RBHA2AM
The experiment can be described thus: radioligand binding to human A2A receptors, HEK-293 membranes. The settings on record: average of duplicate experiments. The method, then:
The binding affinities of synthesized compounds to human A2A receptors (hA2AR) were measured by assessing competitive binding of ligands to radioligand […] using membrane preparations of human recombinant HEK-293 cells expressing human A2A receptors.
The radioligand-binding assays for adenosine receptors were performed at Eurofins Discovery Services (Panlabs, Taiwan). Briefly, stock solutions of the compounds were prepared in DMSO and further diluted with the incubation buffer to the desired concentration. Final DMSO concentrations in the assay were 1.0%. […] Nonspecific binding was estimated in the presence of 100 μM R(-)-PIA. Membranes were filtered and washed 3 times and the filters were counted to determine specifically bound [^3H]DPCPX. Chemical compounds were screened at 10 μM. […] Nonspecific binding was estimated in the presence of 50.0 μM NECA. […] Nonspecific binding was estimated in the presence of 100 μM NECA. Membranes were filtered and washed 3 times and the filters were counted to determine [^3H]MRS1754 specifically bound. […] Nonspecific binding was estimated in the presence of 1.0 μM IB-MECA.
IC50 values were determined by a nonlinear, least-squares regression analysis using MathIQ^TM (ID Business Solutions Ltd., Guildford, UK). […] The Hill coefficient (nH), which defines the slope of the competitive binding curve, was calculated using MathIQ^TM.

In the next experiment the target is T2, hA1 receptor (Homo sapiens, UniProt P30542).
T2 sequence (P30542 1-326): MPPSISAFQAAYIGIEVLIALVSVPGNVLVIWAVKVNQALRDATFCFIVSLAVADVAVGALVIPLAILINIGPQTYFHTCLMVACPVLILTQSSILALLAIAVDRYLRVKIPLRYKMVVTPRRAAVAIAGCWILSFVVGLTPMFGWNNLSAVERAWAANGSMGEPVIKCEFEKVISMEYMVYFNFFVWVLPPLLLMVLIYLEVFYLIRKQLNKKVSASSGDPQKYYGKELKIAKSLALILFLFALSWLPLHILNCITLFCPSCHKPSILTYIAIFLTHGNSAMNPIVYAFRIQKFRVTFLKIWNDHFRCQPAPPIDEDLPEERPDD
The experiment can be described thus: radioligand binding to human A1 receptors, CHO-K1 membranes, [3H]DPCPX. The settings on record: average of duplicate experiments. As to the method: The radioligand-binding assays for adenosine receptors were performed at Eurofins Discovery Services (Panlabs, Taiwan). Briefly, stock solutions of the compounds were prepared in DMSO and further diluted with the incubation buffer to the desired concentration. Final DMSO concentrations in the assay were 1.0%. For adenosine A1 screening, a 10 μg aliquots of membrane preparations from human recombinant CHO-K1 cells stably expressing A1 receptors (CHO-K1-hA1AR clone3, EPDST, R200510) were incubated with 1 nM [^3H]DPCPX in incubation buffer (20 mM HEPES, pH 7.4, 10 mM MgCl2, 100 mM NaCl 1.40 nM) for 90 min at 25 °C. Nonspecific binding was estimated in the presence of 100 μM R(-)-PIA. Membranes were filtered and washed 3 times and the filters were counted to determine specifically bound [^3H]DPCPX. Chemical compounds were screened at 10 μM. For A2A screening, membrane preparations from human recombinant HEK-293 cells stably expressing A2A receptors (PerkinElmer, RBHA2AM) were incubated with 0.05 μM [^3H]CGS-21680 in incubation buffer (50 mM Tris-HCl, pH 7.4, 10 mM MgCl2, 1 mM EDTA, 2 U/mL Adenosine Deaminase) for 90 min at 25 °C. Nonspecific binding was estimated in the presence of 50.0 μM NECA. Membranes were filtered and washed 3 times and the filters were counted to determine [^3H]CGS-21680 specifically bound. For A2B screening, membrane preparations from human recombinant HEK-293 cells stably expressing A2B receptors (PerkinElmer, ES-013-M) were incubated with 1.6 nM [^3H]MRS1754 in incubation buffer (50 mM Tris-HCl, pH 6.5, 5 mM MgCl2, 1 mM EDTA, 0.01 % Bacitracin) for 90 min at 25 °C. Nonspecific binding was estimated in the presence of 100 μM NECA. Membranes were filtered and washed 3 times and the filters were counted to determine [^3H]MRS1754 specifically bound. For A3 screening, membrane preparations from human recombinant CHO-K1 cells stably expressing A3 receptors (PerkinElmer, ES-012-M) were incubated with 0.5 nM [^125I]AB-MECA in incubation buffer (25 mM HEPES, pH 7.4, 5 mM MgCl2, 1 mM CaCl2, 0.1 % BSA) for 60 min at 25 °C. Nonspecific binding was estimated in the presence of 1.0 μM IB-MECA.
IC50 values were determined by a nonlinear, least-squares regression analysis using MathIQ^TM (ID Business Solutions Ltd., Guildford, UK). Where inhibition constants (Ki) were presented, the Ki values were calculated using Cheng and Prusoff equation [18] using the observed IC50 of the compound, the concentration of radioligand employed in the assay, and the historical values for the KD of the ligand (obtained experimentally at Eurofins Panlabs, Inc.). The Hill coefficient (nH), which defines the slope of the competitive binding curve, was calculated using MathIQ^TM.

As a reminder, the Ki is the dissociation constant of the complex between target and ligand, obtained from inhibition or displacement.

The structures appear in SMILES notation.

T1 sequence (P29274 whole entry): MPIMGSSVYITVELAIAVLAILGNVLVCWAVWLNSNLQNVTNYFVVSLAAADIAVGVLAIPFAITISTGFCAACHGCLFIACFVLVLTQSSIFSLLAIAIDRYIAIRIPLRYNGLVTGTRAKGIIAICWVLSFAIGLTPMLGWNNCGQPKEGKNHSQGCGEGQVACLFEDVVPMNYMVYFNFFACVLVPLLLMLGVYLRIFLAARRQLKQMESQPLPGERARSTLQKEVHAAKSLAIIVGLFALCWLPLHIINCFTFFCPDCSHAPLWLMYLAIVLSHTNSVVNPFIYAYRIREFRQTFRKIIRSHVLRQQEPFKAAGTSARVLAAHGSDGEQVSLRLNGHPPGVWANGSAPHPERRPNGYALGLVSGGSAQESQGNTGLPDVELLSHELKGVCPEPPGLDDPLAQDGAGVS

Regarding `N#Cc1cccc(-c2nc(N)nc3c2cnn3Cc2ccc(N)cc2)c1` [4a, 3-(6-Amino-1-(4-aminobenzyl)-1H-pyrazolo[3,4-d]pyrimidin-4-yl)benzonitrile], affinity at hA2A receptors was put at a Ki of 16.4 nM.

Take `N#Cc1cccc(-c2nc(N)nc3c2cnn3Cc2ccc(N)cc2)c1F` [4b, 3-(6-Amino-1-(4-aminobenzyl)-1H-pyrazolo[3,4-d]pyrimidin-4-yl)-2-fluorobenzonitrile]: the affinity on hA2A receptors corresponds to a Ki of 19.4 nM.

With `N#Cc1ccnc(-c2nc(N)nc3c2cnn3Cc2ccc(N)cc2)c1` [11a, 2-(6-Amino-1-(4-aminobenzyl)-1H-pyrazolo[3,4-d]pyrimidin-4-yl)isonicotinonitrile], the Ki on hA1 receptor is 2470 nM; at hA2A receptors it was 310 nM.

In the case of `N#Cc1cccc(-c2nc(N)nc3c2cnn3Cc2ccc(N)cc2)n1` [11b, 6-(6-Amino-1-(4-aminobenzyl)-1H-pyrazolo[3,4-d]pyrimidin-4-yl)picolinonitrile], the Ki at hA1 receptor worked out at 650 nM; on hA2A receptors it was 31 nM.

On to `N#Cc1cncc(-c2nc(N)nc3c2cnn3Cc2ccc(N)cc2)c1` [11c, 5-(6-Amino-1-(4-aminobenzyl)-1H-pyrazolo[3,4-d]pyrimidin-4-yl)nicotinonitrile], for which the Ki at hA1 receptor was 32000 nM; on hA2A receptors it was 4790 nM.

On to `N#Cc1cc(-c2nc(N)nc3c2cnn3Cc2ccc(N)cc2)ccn1` [11d, 4-(6-Amino-1-(4-aminobenzyl)-1H-pyrazolo[3,4-d]pyrimidin-4-yl)picolinonitrile], for which the Ki was found to be 8530 nM on hA1 receptor and 4720 nM on hA2A receptors.

For `N#Cc1ccnc(-c2nc(N)nc3c2cnn3Cc2ccc(N)cc2F)c1` [11e, 2-(6-Amino-1-(4-amino-2-fluorobenzyl)-1H-pyrazolo[3,4-d]pyrimidin-4-yl)isonicotinonitrile], the values for the inhibition constant Ki at hA1 receptor and on hA2A receptors were 710 nM and 120 nM, respectively.

Turning to `N#Cc1cccc(-c2nc(N)nc3c2cnn3Cc2ccc(N)cc2F)n1` [11f, 6-[6-Amino-1-[(4-amino-2-fluoro-phenyl)methyl]pyrazolo[3,4-d]pyrimidin-4-yl]pyridine-2-carbonitrile], the values for the Ki on hA1 receptor and on hA2A receptors were 160 nM and 10.6 nM, respectively.

As to `N#Cc1cncc(-c2nc(N)nc3c2cnn3Cc2ccc(N)cc2F)c1` [11g, 5-(6-Amino-1-(4-amino-2-fluorobenzyl)-1H-pyrazolo[3,4-d]pyrimidin-4-yl)nicotinonitrile], the figures for the inhibition constant Ki at hA1 receptor and at hA2A receptors were 32800 nM and 2640 nM, respectively.

Regarding `N#Cc1cc(-c2nc(N)nc3c2cnn3Cc2ccc(N)cc2F)ccn1` [11h, 4-(6-Amino-1-(4-amino-2-fluorobenzyl)-1H-pyrazolo[3,4-d]pyrimidin-4-yl)picolinonitrile], the inhibitory constant (Ki) at hA1 receptor amounted to 28000 nM; on hA2A receptors, 3190 nM.

`N#Cc1cccc(-c2nc(N)nc3c2cnn3Cc2ccc(N)cc2F)c1` [11i, 3-(6-Amino-1-(4-amino-2-fluorobenzyl)-1H-pyrazolo[3,4-d]pyrimidin-4-yl)benzonitrile]: the Ki stood at 160 nM on hA1 receptor and 12.1 nM on hA2A receptors.

For `N#Cc1cccc(-c2nc(N)nc3c2cnn3Cc2ccc(N)cc2F)c1F` [11j, 3-(6-Amino-1-(4-amino-2-fluorobenzyl)-1H-pyrazolo[3,4-d]pyrimidin-4-yl)-2-fluorobenzonitrile], the Ki at hA1 receptor was found to be 63 nM; on hA2A receptors, 16.4 nM.

As for `Cc1cc(Cn2ncc3c(-c4cc(C#N)ccn4)nc(N)nc32)ccc1N` [11k, 2-(6-Amino-1-(4-amino-3-methylbenzyl)-1H-pyrazolo[3,4-d]pyrimidin-4-yl)isonicotinonitrile], the Ki on hA1 receptor amounted to 510 nM; on hA2A receptors, 65 nM.

Regarding `Cc1cc(Cn2ncc3c(-c4cccc(C#N)n4)nc(N)nc32)ccc1N` [11l, 6-(6-Amino-1-(4-amino-3-methylbenzyl)-1H-pyrazolo[3,4-d]pyrimidin-4-yl)picolinonitrile], the results for the Ki on hA1 receptor and on hA2A receptors were 180 nM and 6.39 nM, respectively.

Regarding `Cc1cc(Cn2ncc3c(-c4cncc(C#N)c4)nc(N)nc32)ccc1N` [11m, 5-(6-Amino-1-(4-amino-3-methylbenzyl)-1H-pyrazolo[3,4-d]pyrimidin-4-yl)nicotinonitrile], the inhibitory constant (Ki) came out at 21200 nM at hA1 receptor and 2480 nM at hA2A receptors.

Turning to `Cc1cc(Cn2ncc3c(-c4ccnc(C#N)c4)nc(N)nc32)ccc1N` [11n, 4-(6-Amino-1-(4-amino-3-methylbenzyl)-1H-pyrazolo[3,4-d]pyrimidin-4-yl)picolinonitrile], the Ki came to 21300 nM on hA1 receptor and 1150 nM at hA2A receptors.

Regarding `N#Cc1ccnc(-c2nc(N)nc3c2cnn3Cc2c(F)cc(N)cc2F)c1` [11p, 2-[6-Amino-1-[(4-amino-2,6-difluoro-phenyl)methyl]pyrazolo[3,4-d]pyrimidin-4-yl]pyridine-4-carbonitrile], the Ki on hA1 receptor was determined as 380 nM; on hA2A receptors, 47 nM.

Turning to `N#Cc1cccc(-c2nc(N)nc3c2cnn3Cc2c(F)cc(N)cc2F)n1` [11q, 6-[6-Amino-1-[(4-amino-2,6-difluoro-phenyl)methyl]pyrazolo[3,4-d]pyrimidin-4-yl]pyridine-2-carbonitrile], the Ki at hA1 receptor is 150 nM; on hA2A receptors, 6.84 nM.

Regarding `N#Cc1cncc(-c2nc(N)nc3c2cnn3Cc2c(F)cc(N)cc2F)c1` [11r, 5-[6-Amino-1-[(4-amino-2,6-difluoro-phenyl)methyl]pyrazolo[3,4-d]pyrimidin-4-yl]pyridine-3-carbonitrile], the values for the Ki at hA1 receptor and at hA2A receptors were 10000 nM and 1220 nM, respectively.

For `N#Cc1cc(-c2nc(N)nc3c2cnn3Cc2c(F)cc(N)cc2F)ccn1` [11s, 4-[6-Amino-1-[(4-amino-2,6-difluoro-phenyl)methyl]pyrazolo[3,4-d]pyrimidin-4-yl]pyridine-2-carbonitrile], the Ki on hA2A receptors came to 4920 nM.

As for `N#Cc1cccc(-c2nc(N)nc3c2cnn3Cc2c(F)cc(N)cc2F)c1` [11t, 3-[6-Amino-1-[(4-amino-2,6-difluoro-phenyl)methyl]pyrazolo[3,4-d]pyrimidin-4-yl]benzonitrile], the Ki at hA1 receptor is 50 nM; on hA2A receptors, 7.42 nM.

For `N#Cc1cccc(-c2nc(N)nc3c2cnn3Cc2c(F)cc(N)cc2F)c1F` [11u, 3-(6-Amino-1-(4-amino-2,6-difluorobenzyl)-1H-pyrazolo[3,4-d]pyrimidin-4-yl)-2-fluorobenzonitrile], the Ki at hA1 receptor stood at 30 nM; on hA2A receptors, 6.45 nM.

In turn, `CCn1c(=O)c2c(nc(/C=C/c3ccc(OC)c(OC)c3)n2C)n(CC)c1=O` [Istradefylline, reference compound] had a Ki on hA1 receptor of 610 nM.

On to `Cc1cc(Cn2ncc3c(-c4cccc(C#N)c4)nc(N)nc32)ccc1N` [compound 8, 3-(6-Amino-1-(4-amino-3-methylbenzyl)-1H-pyrazolo[3,4-d]pyrimidin-4-yl)benzonitrile], for which the results for the Ki at hA1 receptor and on hA2A receptors were 110 nM and 11.1 nM, respectively.

The values are drawn from article PMC9394284, “Discovery of Novel Dual Adenosine A2A and A1 Receptor Antagonists with 1H-Pyrazolo[3,4-d]pyrimidin-6-amine Core Scaffold as Anti-Parkinson’s Disease Agents” (Pharmaceuticals, 2022).
